Experimental data as given in US20110052643A1, “COMPOUNDS FOR INFLAMMATION AND IMMUNE-RELATED USES” (Synta Pharmaceuticals Corp., priority 2008, published 2011).

System: IL-2 production
Test: Inhibition of IL-2 production in PHA-activated Jurkat cells (ELISA)
Type: cell-based
Settings: Homo sapiens, 20 h, PHA 2.5 μg/mL, IL-2 ELISA, values given as ranges
Protocol: Jurkat cells were placed in a 96 well plate (0.5 million cells per well in 1% FBS medium) then a test compound of this invention was added at different concentrations. After 10 minutes, the cells were activated with PHA (final concentration 2.5 μg/mL) and incubated for 20 hours at 37° C. under CO2. The final volume was 200 μL. Following incubation, the cells were centrifuged and the supernatants collected and stored at −70° C. prior to assaying for IL-2 production. A commercial ELISA kit (IL-2 Eli-pair, Diaclone Research, Besancon, France) was used to detect production of IL-2, from which dose response curves were obtained. The IC50 value was calculated as the concentration at which 50% of maximum IL-2 production after stimulation was inhibited versus a non-stimulation control. Inhibition of other cytokines, such as IL-4, IL-5, IL-13, GM-CSF, TNF-α, and INF-γ, can be tested in a similar manner using a commercially available ELISA kit for each cytokine.

Row | Compound | IC50 [nM]
1 | O=C(Nc1ccc(F)c(F)c1F)c1nc2c(s1)-c1cc(-n3ccnc3)ccc1CCC2 [Compound 124] | 250 to 500
2 | COc1ccc2c(c1)CCCc1sc(NC(=O)c3c(F)cccc3F)nc1-2 [Compound 42] | > 1000
3 | O=C(Nc1nc2c(s1)CCCc1ccc(Br)cc1-2)c1c(F)cccc1F [Compound 43] | > 1000
4 | Cc1nc2c(cc1C(=O)Nc1c(F)cccc1F)CCCc1ccc(-c3cccnc3)cc1-2 [Compound 48] | 100 to 250
5 | Cc1nccn1-c1ccc2c(c1)-c1sc(C(=O)Nc3c(F)cccc3F)nc1CCC2 [Compound 115] | 250 to 500
6 | O=C(Nc1c(F)cccc1F)c1cnc2c(c1)CCCc1ccc(-c3cccnc3)cc1-2 [Compound 45] | 100 to 250
7 | O=C(Nc1c(F)cc(F)cc1F)c1nc2c(s1)-c1cc(-n3ccnc3)ccc1CCC2 [Compound 130] | 30 to 100
8 | O=C(Nc1c(F)cccc1F)c1nc2c(s1)-c1cc(-n3cnnc3)ccc1CCC2 [Compound 121] | 30 to 100
9 | Cc1cnccc1NC(=O)c1nc2c(s1)-c1cc(-n3ccnc3)ccc1CCC2 [Compound 132] | 100 to 250
10 | O=C(Nc1ccc(F)cc1F)c1nc2c(s1)-c1cc(-n3ccnc3)ccc1CCC2 [Compound 122] | 100 to 250

More lines, now with the values ahead:

Row | IC50 [nM] | Compound
11 | 30 to 100 | O=C(Nc1cnc2c(n1)CCCC1=C2CN(c2nccs2)CC1)c1c(F)cccc1F [Compound 91]
12 | 30 to 100 | Cc1cn(-c2ccc3c(c2)-c2sc(C(=O)Nc4c(F)cccc4F)nc2CCC3)cn1 [Compound 117]
13 | ≤ 30 | O=C(Nc1c(F)cccc1F)c1nc2c(s1)-c1cc(-n3ccnc3)ccc1CCC2 [Compound 113]
14 | ≤ 30 | O=C(Nc1c(F)cccc1F)c1cc2c(s1)-c1cc(-c3cccnc3)ccc1CCC2 [Compound 2]
15 | ≤ 30 | CCc1cn(-c2ccc3c(c2)-c2ncc(NC(=O)c4c(F)cccc4F)nc2CCC3)cn1 [Compound 134]
16 | ≤ 30 | O=C(Nc1c(F)ccc(F)c1F)c1nc2c(s1)-c1cc(-n3ccnc3)ccc1CCC2 [Compound 126]
17 | ≤ 30 | O=C(Nc1c(F)cccc1F)c1cc2c(s1)-c1cc(Br)ccc1CCC2 [Compound 1]
